Experiments:
Format in all cases: cell-based
[1] = system: HepG-2 liver cancer cells (肝癌细胞HepG-2); assay: SRB cytotoxicity assay, HepG-2; details: HepG-2, SRB, 72 h
[2] = system: NCI-H460 cells (NCI-H460细胞); assay: SRB cytotoxicity assay, NCI-H460; details: 72 h
[3] = system: MCF-7 breast cancer cells (乳腺癌细胞MCF-7); assay: SRB cytotoxicity assay, MCF-7; details: MCF-7, SRB, 72 h
[4] = system: SF-268 nerve cancer cells (神经癌细胞SF-268); assay: SRB cytotoxicity assay, SF-268; details: SF-268, SRB, 72 h

SMILES	IC50 [1]	IC50 [2]	IC50 [3]	IC50 [4]
Cc1cc(O)c2c3c1OC(C)(C)[C@@H](CCl)O[C@]31Oc3cccc(O)c3[C@@]2(O)[C@H]1C [cytorhizin B]	29.4 µM	32.8 µM	30.1 µM	34.8 µM
COC[C@H]1O[C@]23Oc4cccc(O)c4[C@](O)(c4c(O)cc(C)c(c42)OC1(C)C)[C@H]3C [cytorhizin C]	68.6 µM	54.7 µM	58.6 µM	36.8 µM
N.N.[Cl][Pt][Cl] [顺铂, reference compound]	2.4 µM	1.6 µM	3.2 µM	3.3 µM
